Reference: patent US20220400680A1, “USE OF ACYLCYANAMIDES OR SALTS THEREOF FOR REGULATING PLANT GROWTH” (Alzchem Trostberg GmbH, priority 2019, published 2022)

Tests used:
[1] = system: Grape, type Pinot Noir (C4); experiment: Greenhouse test, cut wine sprouts C4 dipped in test solution, bud development stage; assay type: in vivo, Vitis vinifera subsp. vinifera; set-up: key to Bud development stage, wine sprouts C4: Stage 0: Buds unchanged; Stage 1: Buds slightly swollen, first green tips visible; Stage 2: strongly swollen, green buds; Stage 3: Buds before breaking open, leaf or flower root already visible; Stage 4: Flower buds fully developed, but still closed, white petals already visible. In the case of the grapevine, stage 4 was the unfolding of the first leaves; Stage 5: Flowers fully open or, in the case of grapevine, unfolding of the flower roots (“Gescheine”) on the fully leafed sprouts
Method in brief: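 Cut Pinot Noir grapevine sprouts were dipped in aqueous test solution (0.15 mol test substance, or 0.075 mol for bis-cyanamides, plus 0.15 g BreakThru OE-446 per 500 g total) and kept in water jars at about 22° C under natural light. Bud development was scored on a staged scale from closed buds to fully open flowers.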

[2] = system: Table cherry, type Burlat (C3); experiment: Greenhouse test, cut cherry branches C3 dipped in test solution, bud development stage; assay type: in vivo, Prunus avium; set-up: key to Bud development stage, cherry branches C3: Stage 0: Buds unchanged; Stage 1: Buds slightly swollen, first green tips visible; Stage 2: strongly swollen, green buds; Stage 3: Buds before breaking open, leaf or flower root already visible; Stage 4: Flower buds fully developed, but still closed, white petals already visible. In the case of the grapevine, stage 4 was the unfolding of the first leaves; Stage 5: Flowers fully open or, in the case of grapevine, unfolding of the flower roots (“Gescheine”) on the fully leafed sprouts
Method in brief: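 Cut branches kept in water jars in a greenhouse at about 22° C. under natural light after dipping in aqueous solution of 0.15 mol test substance (0.075 mol for bis-cyanamides) plus 0.15 g BreakThru OE-446 per 500 g. Bud development scored on a stage scale from closed buds to fully open flowers.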

[3] = T1 (14 d), 0.15 mol (A-14, A-15: 0.075 mol) per 500 g solution

SMILES: CC(=O)NC#N.[Na] [Example A-1, Sodium Acetylcyanamide]
- Bud development stage, wine sprouts C4 [1, 3]: 0
- Bud development stage, wine sprouts C4 ([1]; T2 (16 d)): 0
- Bud development stage, wine sprouts C4 ([1]; T3 (21 d)): 0
- Bud development stage, wine sprouts C4 ([1]; T4 (27 d)): 1
- Bud development stage, wine sprouts C4 ([1]; T5 (36 d)): 4
- Bud development stage, wine sprouts C4 ([1]; T6 (56 d)): 5
- Dormancy-breaking effect according to the definition, wine C4 ([1]; stage 4 reached or exceeded after 36 days vs negative control): dormancy-breaking effect
- Bud development stage, cherry branches C3 [2, 3]: 1
- Bud development stage, cherry branches C3 ([2]; T2 (16 d)): 2
- Bud development stage, cherry branches C3 ([2]; T3 (21 d)): 5
- Bud development stage, cherry branches C3 ([2]; T4 (27 d)): 5
- Bud development stage, cherry branches C3 ([2]; T5 (36 d)): 5
- Bud development stage, cherry branches C3 ([2]; T6 (56 d)): 5
- Good to very good dormancy-breaking effect, cherry C3 ([2]; stage 4 reached or exceeded after 21 days vs negative control): good to very good dormancy-breaking effect
- Dormancy-breaking effect according to the definition, cherry C3 ([2]; stage 4 reached or exceeded after 27 days vs negative control): dormancy-breaking effect
